Laboratory results published in US20240025919A1, “AZA-TETRACYCLIC OXAZEPINE COMPOUNDS AND USES THEREOF” (Genentech, Inc., priority 2022, published 2024).
Where two headings read alike, the source gives them in different places.

Experiments:
KRAS G12D = KRAS G12D (Homo sapiens (Human), UniProt P01116, G12D); experiment: KRAS G12D LoEnz Biochemical Assay, BODIPY-GDP Exchange TR-FRET (SOS1-mediated nucleotide exchange); conditions: read-out: KRas (G12D) GDP HTRF IC50
KRAS WT [1] = biological target: T1, KRAS WT (Homo sapiens (Human), UniProt P01116); experiment: KRAS WT Biochemical Assay, BODIPY-GDP Exchange TR-FRET (Example 502; 0.06 nM KRAS WT, 15 nM GDP, 300 nM SOS1, 120-minute incubation); conditions: read-out: KRas HTRF IC50
Outline: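 IC50 from a 4-parameter Hill fit of percent inhibition, itself the TR-FRET 520/490 nm ratio scaled between DMSO and a fully inhibiting control. Reaction: 300 nM SOS1 and 300 nM BODIPY-GDP added to preformed 0.06 nM KRAS WT/15 nM GDP/Tb-streptavidin complex; 120 min incubation; pH 7.5 HEPES, MgCl2, DTT.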

[2] = tested on: HPAC (homozygous mutant KRAS G12D human pancreatic cell line); experiment: KRAS 3D-Cell Proliferation Assay, HPAC (CellTiter-Glo 3D, 7 days); type: cell-based; conditions: HPAC 3D culture, read-out: Prolif HPAC 3D ATP IC50
Method: (§1) Example 503: KRAS 3D-Cell Proliferation Assays. Cellular potencies of compounds are assessed by evaluating inhibition of proliferation in 3D cultures of homozygous mutant KRAS G12D human pancreatic cell lines (AsPC-1 and HPAC) as compared to a KRAS wild type human lung adenocarcinoma cell line (PC-9 and/or H1975). Cells are seeded into 384-well black round-bottom, ultra-low attachment assay plates in 50 uL cell growth medium (RPMI-1640 with 10% fetal bovine serum and 2 mM L-glutamine). After overnight incubation at 37° C. and 5% CO2, compounds solubilized in DMSO are added as dilution series to the wells in a total volume of 150 nL (0.3% DMSO final). The cells are incubated for 7 days at 37° C. and 5% CO2. Cell proliferation is quantitated by addition of 40 uL/well of CellTiter-GloO 3D (Promega), and the well contents are mixed 20× at high speed using liquid handling automation workstation (Bravo with 384-well head) and centrifuged at 1500 rpm for 2 minutes to eliminate bubbles. This reagent in combination with mechanical disruption releases the cellular ATP to promote activity in a luciferase-based enzyme/substrate chemiluminescent detection system. After a 30-minute incubation under ambient conditions with shaking and an additional 10 minutes without shaking, the luminescence is read on a plate reader (e.g. EnVision [PerkinElmer]). The results are normalized to percent inhibition based on the following control samples: DMSO (0% inhibition) and 1 uM staurosporine (100% inhibition). The normalized luminescence results are plotted against compound concentration, and the data are fit to a 4-parameter Hill equation to determine the IC50 values.

[3] = tested on: H1975 (KRAS wild type human lung adenocarcinoma cell line); experiment: KRAS 3D-Cell Proliferation Assay, H1975 (CellTiter-Glo 3D, 7 days); type: cell-based; conditions: H1975 3D culture, read-out: Prolif H1975 3D ATP IC50
Method: as §1

KRAS WT [4] = biological target: T1, KRAS WT; experiment: KRAS WT Biochemical Assay, BODIPY-GDP Exchange TR-FRET (Example 501; 3 nM KRAS WT, 3 nM SOS1, 60-minute incubation); conditions: read-out: KRas HTRF IC50
Outline: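 SOS1-mediated exchange assay: 3 nM biotin-KRAS WT with terbium-streptavidin, started with 3 nM SOS1 and 300 nM BODIPY-GDP, HEPES pH 7.5 with MgCl2. TR-FRET (520/490 nm) read after 60 min; normalized to DMSO and full-inhibition control, IC50 from 4-parameter Hill fit.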

Chain of KRAS G12D (P01116-2 other isoform, or with tags, fused parts or gaps G12D): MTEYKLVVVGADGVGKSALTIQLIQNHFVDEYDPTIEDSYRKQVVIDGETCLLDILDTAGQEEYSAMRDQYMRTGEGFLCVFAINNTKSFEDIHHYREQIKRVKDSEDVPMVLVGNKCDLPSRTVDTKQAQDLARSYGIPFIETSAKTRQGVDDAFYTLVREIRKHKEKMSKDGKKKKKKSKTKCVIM
T1 sequence (P01116-2 other isoform, or with tags, fused parts or gaps): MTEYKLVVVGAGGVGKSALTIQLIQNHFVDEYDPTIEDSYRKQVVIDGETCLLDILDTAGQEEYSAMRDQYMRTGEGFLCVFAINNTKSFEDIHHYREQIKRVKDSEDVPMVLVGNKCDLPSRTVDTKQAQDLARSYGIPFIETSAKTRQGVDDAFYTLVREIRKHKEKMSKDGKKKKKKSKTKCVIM

Structure (SMILES)	IC50 (KRAS G12D) [nM]	IC50 (KRAS WT [1]) [nM]	IC50 ([2]; Homo sapiens, HPAC, 168 h) [nM]	IC50 ([3]; Homo sapiens, NCI-H1975, 168 h) [nM]	IC50 [2] [nM]	IC50 [3] [nM]	IC50 (KRAS WT [4]) [nM]
Cc1cc(N)c(F)c(-c2nc3c4c(ncnc4c2Cl)N2C[C@H]4CC[C@H](N4)[C@H]2[C@H](C)O3)c1C(F)(F)F [Compound 93, 3-((5S,5aS,6S,9R)-1-chloro-5-methyl-5a,6,7,8,9,10-hexahydro-5H-4-oxa-3,10a,11,13,14-pentaaza-6,9-methanonaphtho[1,8-ab]heptalen-2-yl)-2-fluoro-5-methyl-4-(trifluoromethyl)aniline]	73.4	14400	836	20000	–	–	–
Cc1c(F)c(N)cc(-c2nc3c4c(nc(OCC56CCCN5CCN(C)C6=O)nc4c2F)N2C[C@H]4CC[C@H](N4)[C@H]2[C@H](C)O3)c1C(F)(F)F (single isomer, unassigned) [137 (isomer 2)]	2.34	454	193	20000	–	–	–
Cc1c(F)c(N)cc(-c2nc3c4c(nc(OC[C@@]56CCCN5CC5(CC5(F)F)C6)nc4c2F)N2C[C@H]4CC[C@H](N4)[C@H]2[C@@H](C)O3)c1C(F)(F)F (stereo partly drawn) [compound 63]	0.15	21.7	–	–	82.4	20800	–
Cc1c(F)c(N)cc(-c2nc3c4c(nc(OC[C@H]5CC[C@@H]6CN(C)C(=O)CN56)nc4c2F)N2C[C@H]4CC[C@H](N4)[C@H]2[C@H](C)O3)c1C(F)(F)F (single isomer, unassigned) [131 (isomer 3)]	2.07	249	–	–	77.4	8850	–
Cc1c(F)c(N)cc(-c2nc3c4c(nc(OCC5CCC6CC(F)(F)CN56)nc4c2F)N2C[C@H]4CC[C@H](N4)[C@H]2[C@H](C)O3)c1C(F)(F)F (single isomer, unassigned) [153 (isomer 2)]	0.32	87.6	–	–	13.4	4180	–
Cc1c(F)c(N)cc(-c2nc3c4c(nc(OCC5CCC6CC(F)(F)CN56)nc4c2F)N2C[C@H]4CC[C@H](N4)[C@H]2[C@H](C)O3)c1C(F)(F)F (single isomer, unassigned) [153 (isomer 3)]	0.55	125	–	–	32.9	4490	–
Cc1c(F)c(N)cc(-c2nc3c4c(nc(OC[C@]56CCC[C@H]5N(C)CCC6)nc4c2F)N2C[C@H]4CC[C@H](N4)[C@H]2[C@H](C)O3)c1C(F)(F)F (single isomer, unassigned) [126 (isomer 4)]	0.37	90.3	24.9	2250	–	–	–
Cc1cc(N)c(F)c(-c2nc3c4c(ncnc4c2Cl)N2C[C@H]4CC[C@H](N4)[C@H]2[C@H](C)O3)c1C(F)(F)F (single isomer, unassigned) [Compound 94]	2300	200000	–	–	2230	15200	–
Cc1c(F)c(N)cc(-c2nc3c4c(nc(OCC5CCC6CC(F)(F)CN56)nc4c2F)N2C[C@H]4CC[C@H](N4)[C@H]2[C@H](C)O3)c1C(F)(F)F (single isomer, unassigned) [153 (isomer 1)]	0.37	90.9	–	4740	19	–	–
Cc1c(F)c(N)cc(-c2nc3c4c(nc(OC[C@]5(CN6C[C@H]7C[C@@H]6CO7)CC5(F)F)nc4c2F)N2C[C@H]4CC[C@H](N4)[C@H]2[C@H](C)O3)c1C(F)(F)F [166 b, 5-((5S,5aS,6S,9R)-12-((1-(((1R,4R)-2-Oxa-5-azabicyclo[2.2.1]heptan-5-yl)methyl)-2,2-difluorocyclopropyl)methoxy)-1-fluoro-5-methyl-5a,6,7,8,9,10-hexahydro-5H-4-oxa-3,10a,11,13,14-pentaaza-6,9-methanonaphtho[1,8-ab]heptalen-2-yl)-2-fluoro-3-methyl-4-(trifluoromethyl)aniline]	0.15	5.38	–	–	1.49	402	–
Cc1c(F)c(N)cc(-c2nc3c4c(nc(OC[C@@H]5C[C@H]6COCCN65)nc4c2F)N2C[C@H]4CC[C@H](N4)[C@H]2[C@H](C)O3)c1C(F)(F)F (single isomer, unassigned) [159 (diast. 2)]	0.23	48.1	23.8	1240	–	–	–
Cc1c(F)c(N)cc(-c2nc3c4c(nc(OC[C@@]56CCCN5[C@@H](C(F)F)CC6)nc4c2F)N2C[C@H]4CC[C@H](N4)[C@H]2[C@H](C)O3)c1C(F)(F)F (single isomer, unassigned) [130 (isomer 1)]	2.26	460	–	2830	44.7	–	–
Cc1c(F)c(N)cc(-c2nc3c4c(nc(OC[C@@]56CCC[C@@H]5N(C)CCC6)nc4c2F)N2C[C@H]4CC[C@H](N4)[C@H]2[C@H](C)O3)c1C(F)(F)F (single isomer, unassigned) [126 (isomer 2)]	0.09	8.08	5.15	1770	–	–	–
Cc1c(F)c(N)cc(-c2nc3c4c(nc(OC[C@H]5CC[C@@H]6CN(C)C(=O)CN56)nc4c2F)N2C[C@H]4CC[C@H](N4)[C@H]2[C@H](C)O3)c1C(F)(F)F (single isomer, unassigned) [131 (isomer 1)]	13.9	2530	–	–	1430	20000	–
Cc1c(F)c(N)cc(-c2nc3c4c(nc(OC[C@@H]5CCC6C[C@@H](C(=O)N(C)C)CCN65)nc4c2F)N2C[C@H]4CC[C@H](N4)[C@H]2[C@H](C)O3)c1C(F)(F)F (single isomer, unassigned) [133 (isomer 2)]	0.15	14.4	22.4	1600	–	–	–
Cc1c(F)c(N)cc(-c2nc3c4c(nc(OCC5CC(F)C6CCCN56)nc4c2F)N2C[C@H]4CC[C@H](N4)[C@H]2[C@H](C)O3)c1C(F)(F)F (single isomer, unassigned) [Compound 160 (diast. 2)]	0.12	22.5	6.97	755	–	–	–
Cc1c(F)c(N)cc(-c2nc3c4c(nc(OC[C@@H]5C[C@@H]6C[N@@]5CCO6)nc4c2F)N2C[C@H]4CC[C@H](N4)[C@H]2[C@H](C)O3)c1C(F)(F)F (single isomer, unassigned) [151 (isomer 1)]	1.84	398	323	20000	–	–	–
Cc1c(F)c(N)cc(-c2nc3c4c(nc(OCC5C[C@@H]6C[N@@]5CCO6)nc4c2F)N2C[C@H]4CC[C@H](N4)[C@H]2[C@H](C)O3)c1C(F)(F)F (single isomer, unassigned) [151 (isomer 2)]	0.12	25.5	8.04	1690	–	–	–
Cc1c(F)c(N)cc(-c2nc3c4c(nc(OC[C@@]56CCCN5[C@@H](C(F)F)CC6)nc4c2F)N2C[C@H]4CC[C@H](N4)[C@H]2[C@H](C)O3)c1C(F)(F)F (single isomer, unassigned) [130 (isomer 2)]	0.92	174	–	–	15.8	2900	–
Cc1c(F)c(N)cc(-c2nc3c4c(nc(OC[C@H]5CC[C@@H]6CN(C)C(=O)CN56)nc4c2F)N2C[C@H]4CC[C@H](N4)[C@H]2[C@H](C)O3)c1C(F)(F)F (single isomer, unassigned) [131 (isomer 2)]	1.31	293	–	–	342	20000	–
Cc1cc(N)c(F)c(-c2nc3c4c(ncnc4c2Cl)N2C[C@H]4CC[C@H](N4)[C@H]2[C@H](C)O3)c1C(F)(F)F (single isomer, unassigned) [Compound 95]	–	3570	–	–	247	6700	–
Cc1c(F)c(N)cc(-c2nc3c4c(nc(OC[C@@]56CCCN5C[C@H](F)C6)nc4c2F)N2C[C@H]4CC[C@H](N4)[C@H]2[C@@H](C(F)F)O3)c1C(F)(F)F (single isomer, unassigned) [238 (isomer 2)]	13000	–	2000	20000	–	–	4800
